Source: patent publication US7914821B2, “Pharmaceutical composition for prevention and/or treatment of bone loss” (KO DA Pharmaceuticals Co., Ltd., priority 2008, dated 2011)

Assays:
[1] = test system: Bone cells; experiment: Collagen secretion in bone cells; assay type: cell-based, rat; conditions: for collagen secretion in the bone cells: 0.3, 1, 3, 10 μM, FIG. 8B; for increase of collagen content / collagen synthesis: 'at least' figure
Experimental: (§1) Rat primary osteoblast was isolated from the parietal bone of gestation day 18 embryos of Sprague-Dawley rats. After being slaughtered, the embryo rats were obtained from the uteruses of the rats, and calvarium was isolated from the embryo rats. Parietal bone was cut from the calvarium and digested by 0.1% collagenase for 20 minutes to release the bone cells from the bone tissue. The digestion step was repeated five times. The collected bone cells were cultured in α-MEM containing 1% penicillin-streptomycin and 10% FBS in a humidified atmosphere of 5 percent carbon dioxide. When cells were attached and confluence, they were sub-cultured, which was called “passage 2 (P2)”. The passage was for analogizing. 2 to 5 passage cells were used for the experiments.
Bone cells were treated with 0.3, 1, 3, and 10 μM of imperatorin and bergapten, respectively. After treatment, the cells were lysed in 6N HCl at 116° C. for 16 hrs, and dried in a vacuum. The resultant residue was dissolved in an equal volume of water, and then absorbance was measured at […]. The collagen secretion in the control group which was treated with 0.1% DMSO was defined as 100%. Referring to FIG. 8B, imperatorin and bergapten both increased the collagen secretion in the bone cells

[2] = test system: ERK mutant cell (DN-ERK); experiment: ALP activity in ERK mutant cell; assay type: cell-based; conditions: 10 μM; FIG. 11D
Experimental: Bone cells were cultured and treated with (1) 10 μM SB203580, (2) 10 μM PD98059, (3) 10 μM imperatori, (4) 10 μM bergapten, (5) 10 μM imperatorin+SB203580, (6) 10 μM bergapten+SB203580, (7) 10 μM imperatorin+PD98059 ? (8) 10 μM bergapten+PD98059 for 48 hrs. After treatment, the bone cells were lysed in 0.2% […] solution and centrifuged at 1500×g for 5 minutes. The supernatant was analyzed by an ALP kit such as described above to obtain the ALP activity. The ALP activity in the control group which was treated with 0.1% DMSO was defined as 100%. Referring to FIG. 11C, p38 inhibitor (SB203580) and ERK inhibitor (PD98059) suppressed the imperatorin and bergapten induced-ALP activity.
The same procedure carried out in Example 20 was repeated. The experiment group used alternative cells and treatment comprising: (1) DN-p38 cell, (2) DN-ERK cell, (3) DN-p38 cell+10 μM imperatorin, (4) DN-p38 cell+10 μM bergapten, (5) DN-ERK cell+10 μM imperatorin, (6) DN-ERK cell+10 μM bergapten, (7) normal bone cell+10 μM imperatorin, and (8) normal bone cell+10 μM bergapten. The ALP activity in the control group which was treated with 0.1% DMSO was defined as 100%. Referring to FIG. 11D, the ALP activity was not induced in p38 mutant cell (DN-p38) and ERK mutant cell (DN-ERK) by imperatorin and bergapten.

[3] = test system: Bone cells; experiment: Mineralization in bone cells (Alizarin red-S); assay type: cell-based, rat; conditions: for mineralization of bone cells: 0.3, 1, 3, 10 μM, 14 days, differentiation medium, FIGS. 8C-8D; for increase of mineralization: 'at least' figure
Experimental: as §1
Bone cells were cultured in 96-well Plate containing a differentiation medium (50 μg/ml vitamin C and 10 mM β-glycerophosphate) and treated with 0.3, 1, 3, and 10 μM of imperatorin and bergapten, respectively. The differentiation medium was refreshed every 3 days. 14 days after the cell culture, the bone cells were fixed with 75% ethanol for 30 minutes, and then treated with 40 mM Alizarin red-S at room temperature for 1 hr. After the addition of Alizarin red-S, 10% cetylpyridinium chloride was added, and then absorbance was measured at […]. The mineralization level in the control group which was treated with 0.1% DMSO was defined as 100%. Referring to FIGS. 8C-8D, imperatorin and bergapten both increased the mineralization of bone cells.

[4] = test system: EPK protein; experiment: Phosphorylation of EPK protein (western blot); assay type: cell-based, rat; conditions: 10 μM, 1, 3, 6, 12, 24 hrs; FIG. 10
Experimental: as §1
(§2) Bone cells was cultured in 6-well plate and treated with 10 μM of imperatorin and bergapten for 1, 3, 6, 12, and 24 hrs, respectively. […] Following incubation with the secondary antibody, the membrane was washed three times with PBST, and detected by an […] chemiluminescence using an ECL blotting substrate according to the manufacturer's instructions. […]

[5] = test system: SMADs; experiment: Phosphorylation of SMADs (western blot); assay type: cell-based, rat; conditions: 10 μM, 1, 3, 6, 12, 24 hrs; FIG. 10
Experimental: as §1, §2

[6] = test system: Male Sprague-Dawley rats; experiment: Animal experiment: local administration into the tibia; assay type: in vivo, rat; conditions: for bone volume of tibia metaphysis / BMC / BMD / BV/TV (bone volume/tissue volume): 30 μM every day for a week through needle into tibia; for bone volume of tibia metaphysis: FIG. 12; for increase of bone mineral content / increase of bone mineral density: 'at least' figure, matches Table 3 vs control; for BMC / BMD / BV/TV (bone volume/tissue volume): tibia
Experimental: Male Sprague-Dawley rats (weighing 78 to 90 grams, at three weeks of age) were anesthetized with […] of trichloroacetaldehyde monohydrate. […] needle was sterilized and injected into the tibia of the rats. One day after the injection, the rats were administered with normal saline as the control, 30 μM imperatorin, and 30 μM bergapten every day for a week through the needle, respectively. Then, the rats were slaughtered after the last administration, and the tibias were immediately isolated after slaughtering and subject to BMD, BMC, and histochemical examination. Referring to FIG. 12, the bone volume of tibia metaphysis was increased by imperatorin and bergapten.

Structure (SMILES)	collagen secretion in the bone cells [1]	increase of collagen content / collagen synthesis [1]	ALP activity in ERK mutant cell (DN-ERK) [2]	mineralization of bone cells [3]	increase of mineralization [3] [%]	phosphorylation of EPK protein [4]	phosphorylation of SMADs [5]	bone volume of tibia metaphysis [6]	increase of bone mineral content [6] [%]	increase of bone mineral density [6]	BMC [6] [g]	BMD [6] [g/mL]	BV/TV (bone volume/tissue volume) [6] [%]
COc1c2ccoc2cc2oc(=O)ccc12 [bergapten]	increased	at least 100%	not induced	increased	≥ 105.0	induced	induced	increased	≥ 33.7	at least 12.2%	0.111 ± 0.003	0.101 ± 0.002	18.1 ± 0.4
CC(C)=CCOc1c2occc2cc2ccc(=O)oc12 [imperatorin]	increased	at least 102.0%	not induced	increased	≥ 110.0	induced	induced	increased	≥ 28.91	at least 12.22%	0.107 ± 0.003	0.101 ± 0.002	17.6 ± 0.6
